# Assay results published in patent publication US10351586B2, “Cytidine derivative dimers and applications thereof” (CHANGZHOU FANGYUAN PHARMACEUTICAL CO., LTD, priority 2014, dated 2019).
# Marks after values point to notes of the source that are not given here.
# Legend:
# [1] = test system: HCT-116 human colon cancer xenografts; assay: Tumor growth inhibition of HCT-116 human colon cancer xenografts in nude mice; type: in vivo, Balb/c nude mice; conditions: for Relative tumor proliferation rate (T/C %) / Relative tumor volume (RTV) / Tumor growth inhibition rate (TGI %) / Tumor volume of HCT-116 human colon cancer xenografts: single IP injection (QD×1), D1 and D2 400 mg/kg, D3 350 mg/kg, D4 300 mg/kg; for Tumor volume of HCT-116 human colon cancer xenografts: Mean±SEM
# Procedure: 2. Preparation of the test substance was performed by dissolving the test substance using the following solvents:
# 3. Animal experiments were performed. […] Animals were numbered using their tail number.
# 4.1 Tumor cells were human HCT-116 colon cancer cells purchased from the Institute of Cell Biology, Chinese Academy of Sciences (Beijing, China). F-12 medium (containing 10% FBS) was used to culture cells in a carbon dioxide incubator at about 37° C., saturated humidity, under 5% CO2 and 95% air. Before inoculation, cells in logarithmic growth phase were collected. After digested by 0.25% trypsin, the cells were washed with PBS once. The cells were resuspended with serum-free medium and counted. Serum-free medium were used for cell resuspension, until the cell concentration was adjusted to about 3×10^7 cell/mL.
# 4.2 Animal inoculation and grouping were performed.
# The diameters (D) of the tumor nodules were measured three times a week with a circle sizer ruler. In addition, the following formula was applied to calculate the volume of the tumor nodules (V): V=[…](D/2)^3 generally for a spherical shape. Evaluation indexes of antitumor activity were tumor growth inhibition rate TGI (%) and relative tumor proliferation rate T/C (%).
# The calculation formula of TGI was: TGI (%)=(Vcontrol−VTreatment)/Vcontrol)×100%. The relative tumor volume (RTV) was calculated by: RTV=Vt/V0, where V0 is the tumor volume at the time of group administration, and Vt is the tumor volume at the time of measurement.
# The mice were weighed 3 times every week.
# 4.5 Data and statistical analysis were provided.
# [2] = Body weight / toxicity of a single intraperitoneal injection in HCT-116 colon tumor-bearing nude mice; conditions: D3 350 mg/kg, D4 300 mg/kg; for Average rate of weight change of the animals / Average weight of the animals: single IP injection (QD×1), D1 and D2 400 mg/kg; for Average weight of the animals: Mean±SEM
# Procedure: Corresponding test substance was weighed and put into a 5 mL glass tube. The test substance was dissolved in ethanol under the stirring by a 5 mm magnetic stirrer. After a complete dissolution, Cremophor EL was added with continuous stirring. Immediately prior to the user of the test substance, the labeled amount of physiological saline was added and stirred.
# Animal experiments were performed. The animals were female Balb/c nude mice at specific pathogen free (SPF) level and were supplied from Shanghai Sippr/BK Lab Animal Ltd. (Shanghai, China). […] These animals were at the age of about 7 weeks to about 9 weeks at the beginning of the experiments and had the weight of about 18 grams to about 22 grams at the beginning of the experiment. The animals had acclimatization duration of about 5 days to about 7 days. Animals were numbered using their tail number. The animal room was maintained at about 23±2° C., 40%-70% humidity, with alternating light and dark every 12 hours.
# 4.2 Animal inoculation and grouping were performed. Under aseptic conditions, each nude mice was injected with 0.1 mL cell suspension into the right hind leg subcutaneously (3×10^6 cell/mouse). When the size of the tumor grew to have a volume of about 60-150 mm^3, nude mice with a similar tumor size and a desirable shape (e.g., with substantially same shape such as a substantially spherical shape, without having irregular shapes or multiple tumors grouped together) were selected and grouped. In the experiment, there were six mice in each group.
# The mice in control group were injected with a mixed solution including ethanol, Cremophor EL and normal saline at a ratio of 5:5:90.
# 4.4 Clinical symptoms were provided. All clinical symptoms of each animal were recorded at the beginning of the experiments and during the experiments. The observation was performed at the same time every day.
# After administration of the test substance, when the weight reduction was >20%, when the animal was dying, or when the tumor volume exceeds about 2800 mm^3, the animal were euthanized by applying CO2. The tumor was separated and weighed, an autopsy was performed, and visual inspection was conducted and recorded on whether there were pathological changes in the organs.
# [3] = D1 400 mg/kg Day 7, D2 400 mg/kg Day 9, D3 350 mg/kg Day 11, D4 300 mg/kg Day 11, single IP
smiles,measurement,setting,value
"CCCCOC(=O)Nc1ccn([C@H]2O[C@@H](COC(=O)CCC(=O)OC[C@H]3O[C@@H](n4ccc(NC(=O)OCCCC)nc4=O)C(F)(F)[C@@H]3O)[C@H](O)C2(F)F)c(=O)n1 (stereo in doubt) [Compound D2, 1,5-di-[4-N-(n-butoxycarbonyl)-2′-deoxy-2′,2′-difluoro-cytidine]glutarate]","Relative tumor proliferation rate, minimum",[1]; [3],14.41%
same,"Tumor inhibition rate, maximum",[1]; [3],94.79%
same,Relative tumor proliferation rate (T/C %),[1]; Day 0,0.00%
same,Relative tumor volume (RTV),[1]; Day 0,1.00
same,Tumor growth inhibition rate (TGI %),[1]; Day 0,0.00%
same,Tumor volume of HCT-116 human colon cancer xenografts,[1]; Day 0,53.09 ± 9.33** mm^3
same,Relative tumor proliferation rate (T/C %),[1]; Day 1,50.15%
same,Relative tumor volume (RTV),[1]; Day 1,0.89 ± 0.10
same,Tumor growth inhibition rate (TGI %),[1]; Day 1,71.87%
same,Tumor volume of HCT-116 human colon cancer xenografts,[1]; Day 1,50.78 ± 14.16** mm^3
same,Relative tumor proliferation rate (T/C %),[1]; Day 2,40.78%
same,Relative tumor volume (RTV),[1]; Day 2,0.95 ± 0.15
same,Tumor growth inhibition rate (TGI %),[1]; Day 2,74.81%
same,Tumor volume of HCT-116 human colon cancer xenografts,[1]; Day 2,55.89 ± 18.82** mm^3
same,Relative tumor proliferation rate (T/C %),[1]; Day 4,25.19%
same,Relative tumor volume (RTV),[1]; Day 4,0.73 ± 0.19
same,Tumor growth inhibition rate (TGI %),[1]; Day 4,84.53%
same,Tumor volume of HCT-116 human colon cancer xenografts,[1]; Day 4,45.96 ± 20.25** mm^3
same,Relative tumor proliferation rate (T/C %),[1]; Day 7,16.63%
same,Relative tumor volume (RTV),[1]; Day 7,0.52 ± 0.23
same,Tumor growth inhibition rate (TGI %),[1]; Day 7,91.71%
same,Tumor volume of HCT-116 human colon cancer xenografts,[1]; Day 7,35.87 ± 21.79** mm^3
same,Relative tumor proliferation rate (T/C %),[1]; Day 9,14.41%
same,Relative tumor volume (RTV),[1]; Day 9,0.46 ± 0.17
same,Tumor growth inhibition rate (TGI %),[1]; Day 9,94.79%
same,Tumor volume of HCT-116 human colon cancer xenografts,[1]; Day 9,30.75 ± 16.74** mm^3
same,Relative tumor proliferation rate (T/C %),[1]; Day 11,16.77%
same,Relative tumor volume (RTV),[1]; Day 11,0.87 ± 0.35
same,Tumor growth inhibition rate (TGI %),[1]; Day 11,94.13%
same,Tumor volume of HCT-116 human colon cancer xenografts,[1]; Day 11,57.29 ± 33.0** mm^3
same,Relative tumor proliferation rate (T/C %),[1]; Day 14,18.33%
same,Relative tumor volume (RTV),[1]; Day 14,1.80 ± 0.69
same,Tumor growth inhibition rate (TGI %),[1]; Day 14,91.88%
same,Tumor volume of HCT-116 human colon cancer xenografts,[1]; Day 14,116.87 ± 66.85** mm^3
same,Relative tumor proliferation rate (T/C %),[1]; Day 16,21.64%
same,Relative tumor volume (RTV),[1]; Day 16,2.66 ± 0.88
same,Tumor growth inhibition rate (TGI %),[1]; Day 16,90.63%
same,Tumor volume of HCT-116 human colon cancer xenografts,[1]; Day 16,169.73 ± 88.15** mm^3
same,Relative tumor proliferation rate (T/C %),[1]; Day 18,21.99%
same,Relative tumor volume (RTV),[1]; Day 18,4.20 ± 1.02
same,Tumor growth inhibition rate (TGI %),[1]; Day 18,86.88%
same,Tumor volume of HCT-116 human colon cancer xenografts,[1]; Day 18,262.10 ± 111.14** mm^3
same,Relative tumor proliferation rate (T/C %),[1]; Day 21,34.57%
same,Relative tumor volume (RTV),[1]; Day 21,8.09 ± 1.52
same,Tumor growth inhibition rate (TGI %),[1]; Day 21,79.99%
same,Tumor volume of HCT-116 human colon cancer xenografts,[1]; Day 21,489.13 ± 174.91 mm^3
same,Relative tumor proliferation rate (T/C %),[1]; Day 23,42.87%
same,Relative tumor volume (RTV),[1]; Day 23,8.48 ± 1.37
same,Tumor growth inhibition rate (TGI %),[1]; Day 23,78.74%
same,Tumor volume of HCT-116 human colon cancer xenografts,[1]; Day 23,501.98 ± 170.25 mm^3
same,Relative tumor proliferation rate (T/C %),[1]; Day 25,44.51%
same,Relative tumor volume (RTV),[1]; Day 25,9.62 ± 1.48
same,Tumor growth inhibition rate (TGI %),[1]; Day 25,77.96%
same,Tumor volume of HCT-116 human colon cancer xenografts,[1]; Day 25,569.05 ± 189.18 mm^3
same,Relative tumor proliferation rate (T/C %),[1]; Day 28,56.94%
same,Relative tumor volume (RTV),[1]; Day 28,12.03 ± 1.50
same,Tumor growth inhibition rate (TGI %),[1]; Day 28,74.35%
same,Tumor volume of HCT-116 human colon cancer xenografts,[1]; Day 28,689.78 ± 203.52 mm^3
same,Relative tumor proliferation rate (T/C %),[1]; Day 30,63.87%
same,Relative tumor volume (RTV),[1]; Day 30,15.85 ± 1.92
same,Tumor growth inhibition rate (TGI %),[1]; Day 30,67.91%
same,Tumor volume of HCT-116 human colon cancer xenografts,[1]; Day 30,900.52 ± 250.44 mm^3
same,Inhibition of growth of HCT-116 human colon cancer xenografts (in words),"[1]; single IP injection, 300-400 mg/kg",higher tumor inhibition rates
same,Average rate of weight change of the animals,[2]; Day 0,0.00%
same,Average weight of the animals,[2]; Day 0,19.87 ± 0.25 g
same,Average rate of weight change of the animals,[2]; Day 1,−0.08 ± 0.74%
same,Average weight of the animals,[2]; Day 1,19.85 ± 0.28 g
same,Average rate of weight change of the animals,[2]; Day 2,−8.54 ± 1.31 %
same,Average weight of the animals,[2]; Day 2,18.17 ± 0.31 g
same,Average rate of weight change of the animals,[2]; Day 4,−10.63 ± 2.13 %
same,Average weight of the animals,[2]; Day 4,17.75 ± 0.44 g
same,Average rate of weight change of the animals,[2]; Day 7,−6.98 ± 1.43%
same,Average weight of the animals,[2]; Day 7,18.48 ± 0.40 g
same,Average rate of weight change of the animals,[2]; Day 9,0.21 ± 1.42%
same,Average weight of the animals,[2]; Day 9,19.92 ± 0.45 g
same,Average rate of weight change of the animals,[2]; Day 11,2.72 ± 1.85%
same,Average weight of the animals,[2]; Day 11,20.42 ± 0.53 g
same,Average rate of weight change of the animals,[2]; Day 14,4.87 ± 2.08 %
same,Average weight of the animals,[2]; Day 14,20.85 ± 0.60 g
same,Average rate of weight change of the animals,[2]; Day 16,6.32 ± 1.65 %
same,Average weight of the animals,[2]; Day 16,21.13 ± 0.51 g
same,Average rate of weight change of the animals,[2]; Day 18,8.83 ± 1.43 %
same,Average weight of the animals,[2]; Day 18,21.63 ± 0.51 g
same,Average rate of weight change of the animals,[2]; Day 21,4.22 ± 1.23 %
same,Average weight of the animals,[2]; Day 21,20.72 ± 0.46 g
same,Average rate of weight change of the animals,[2]; Day 23,3.66 ± 1.05 %
same,Average weight of the animals,[2]; Day 23,20.60 ± 0.40 g
same,Average rate of weight change of the animals,[2]; Day 25,5.07 ± 1.44%
same,Average weight of the animals,[2]; Day 25,20.88 ± 0.48 g
same,Average rate of weight change of the animals,[2]; Day 28,1.57 ± 1.50%
same,Average weight of the animals,[2]; Day 28,20.18 ± 0.44 g
same,Average rate of weight change of the animals,[2]; Day 30,2.28 ± 1.75%
same,Average weight of the animals,[2]; Day 30,20.33 ± 0.55 g
same,Toxicity in tumor-bearing mice (in words),"[2]; single IP injection, D2 400 mg/kg, judged from body weight versus control",no toxicity
